The assay concerns A. galli (intestinal roundworm of chicken) larval stage 3; O. dentatum (nodular worm of swine) larval stages 3 and 4. Description: Activity against Ascaridia galli and Oesophagostomum dentatum larvae in vitro (minimum effective concentration). Type of assay: cell-based.
Setting [1] is: in vitro, two or more of A. galli L3, O. dentatum L3, L4, threshold 1 μM, read-out: MEC (minimum effective concentration) against two or more of the tested nematodes.
The mark [2] stands for this setting: in vitro, one or more of A. galli L3, O. dentatum L3, L4, threshold 1 μM, read-out: MEC (minimum effective concentration) against one or more of the tested nematodes.
Setting [3] is: read-out: MEC (minimum effective concentration) against two or more of the tested nematodes, in vitro, two or more of A. galli L3, O. dentatum L3, L4, threshold 1 μM.
[4] abbreviates: in vitro, one or more of A. galli L3, O. dentatum L3, L4, threshold 7 μM, read-out: MEC (minimum effective concentration) against one or more of the tested nematodes.

Read-outs that look alike come from different tables or passages of the source.

As for `O=C(CCN1CCN(c2cccc(C(F)(F)F)c2)CC1)N1CCC(Nc2ccc([N+](=O)[O-])c(C(F)(F)F)c2)CC1` [Example 183], the minimal effective concentration under setting [1] is less than 1 µM. Still for that read-out and setting: to `O=C(CCN1CCN(c2cccc(OC(F)(F)F)c2)CC1)N1CCC(Nc2ccc([N+](=O)[O-])c(C(F)(F)F)c2)CC1` [Example 191] belongs less than 1 µM. `O=C(CCN1CCC(Nc2ccc([N+](=O)[O-])c(C(F)(F)F)c2)CC1)N1CCN(c2ccc(Cl)cc2)CC1` [Example 199]: under setting [2], the minimal effective concentration was less than 1 µM. Regarding `N#Cc1ccc(N2CCN(C(=O)CCN3CCC(Nc4ccc([N+](=O)[O-])c(C(F)(F)F)c4)CC3)CC2)cc1` [Example 200], the minimal effective concentration under setting [2] was less than 1 µM. With `O=C(CC(=O)N1CCN(c2ccc(Cl)c(C(F)(F)F)c2)CC1)N1CCC(Nc2ccc([N+](=O)[O-])c(C(F)(F)F)c2)CC1` [Example 202], the minimal effective concentration under setting [1] was less than 1 µM. On to `CC(C)(C)c1ccc(N2CCN(C(=O)CC(=O)N3CCC(Nc4ccc([N+](=O)[O-])c(C(F)(F)F)c4)CC3)CC2)cc1` [Example 203], for which the minimal effective concentration under setting [1] was less than 1 µM. In the case of `O=C(CC(=O)N1CCN(c2cccc(OC(F)(F)F)c2)CC1)N1CCC(Nc2ccc([N+](=O)[O-])c(C(F)(F)F)c2)CC1` [Example 210], the minimal effective concentration under setting [2] was less than 1 µM. The same measure, in the same setting: with `O=C(CCN1CCC(c2cccc(C(F)(F)F)c2)CC1)N1CCC(Nc2ccc([N+](=O)[O-])c(C(F)(F)F)c2)CC1` [Example 212] the figure was less than 1 µM. Turning to `O=C(CCC1CCN(c2cccc(C(F)(F)F)c2)CC1)N1CCC(Nc2ccc([N+](=O)[O-])c(C(F)(F)F)c2)CC1` [Example 215], the minimal effective concentration is less than 1 µM under setting [2] and less than 1 µM under setting [1]. Turning to `O=C(CCC1CCN(c2ccccc2)CC1)N1CCC(Nc2ccc([N+](=O)[O-])c(C(F)(F)F)c2)CC1` [Example 216], the minimal effective concentration is less than 1 µM under setting [2] and less than 1 µM under setting [1]. Consider `O=C(CCN1CCN(c2ccc(Cl)c(C(F)(F)F)c2)CC1)N1CCC(Oc2ccc([N+](=O)[O-])c(C(F)(F)F)c2)CC1` [Example 218], for which the minimal effective concentration under setting [1] is less than 1 µM. With `CC(C)(C)c1ccc(N2CCN(CCC(=O)N3CCC(Oc4ccc([N+](=O)[O-])c(C(F)(F)F)c4)CC3)CC2)cc1` [Example 220], under setting [1], the minimal effective concentration is less than 1 µM. Same read-out and setting: with `O=C(CCN1CCN(c2cccc(OC(F)(F)F)c2)CC1)N1CCC(Oc2ccc([N+](=O)[O-])c(C(F)(F)F)c2)CC1` [Example 225] the figure was less than 1 µM; with `O=C([C@@H]1CCC[C@H](C(=O)N2CCC(Nc3ccc([N+](=O)[O-])c(C(F)(F)F)c3)CC2)C1)N1CCN(c2ccccc2)CC1` [Example 227], less than 1 µM. On the same count and under the same terms, to `O=C(C1CCC[C@H](C(=O)N2CCN(c3ccccc3)CC2)C1)N1CCC(Oc2ccc([N+](=O)[O-])c(C(F)(F)F)c2)CC1` (some centres unmarked) [Example 228] belongs less than 1 µM; to `O=C(CCN1CCN(C2CCCCC2)CC1)N1CCC(Nc2ccc([N+](=O)[O-])c(C(F)(F)F)c2)CC1` [Example 241], less than 1 µM. In the case of `Cc1ccc(N2CCN(CCS(=O)(=O)N3CCC(Nc4ccc([N+](=O)[O-])c(C(F)(F)F)c4)CC3)CC2)cc1` [Example 243], the minimal effective concentration under setting [1] was less than 1 µM.

As to `O=[N+]([O-])c1ccc(NC2CCN(S(=O)(=O)CCN3CCN(c4ccc(C(F)(F)F)cc4)CC3)CC2)cc1C(F)(F)F` [Example 245], the minimal effective concentration under setting [1] is less than 1 µM.

Turning to `O=[N+]([O-])c1ccc(NC2CCN(S(=O)(=O)CCN3CCN(C4CCCCC4)CC3)CC2)cc1C(F)(F)F` [Example 248], the minimal effective concentration under setting [1] was less than 1 µM. On the same count and under the same terms, with `COc1ccc(N2CCN(CCC(=O)N3CCC(Nc4ccc([N+](=O)[O-])c(C(F)(F)F)c4)CC3)CC2)cc1` [Example 254] the figure was less than 1 µM.

Consider `O=C(CCN1CCN(c2ccc(C(F)(F)F)cn2)CC1)N1CCC(Nc2ccc([N+](=O)[O-])c(C(F)(F)F)c2)CC1` [Example 255], for which the minimal effective concentration under setting [1] is less than 1 µM. As for `CC(C)(C)c1ccc(N2CCN(CCCC(=O)N3CCC(Oc4ccc([N+](=O)[O-])c(C(F)(F)F)c4)CC3)CC2)cc1` [Example 258], the minimal effective concentration under setting [2] is less than 1 µM. Consider `O=C(CCCN1CCN(c2ccc(Cl)cc2)CC1)N1CCC(Oc2ccc([N+](=O)[O-])c(C(F)(F)F)c2)CC1` [Example 259], for which the minimal effective concentration under setting [2] is less than 1 µM.

Turning to `O=C(CCCN1CCN(c2ccc(F)cc2)CC1)N1CCC(Oc2ccc([N+](=O)[O-])c(C(F)(F)F)c2)CC1` [Example 261], under setting [2], the minimal effective concentration was less than 1 µM. As to `O=C(CCCN1CCN(c2ccc(C(F)(F)F)cc2)CC1)N1CCC(Nc2ccc(C(F)(F)F)cc2)CC1` [Example 269], the minimal effective concentration under setting [1] was less than 1 µM. Still for that read-out and setting: with `COc1ccc(NC2CCN(C(=O)CCCN3CCN(c4ccc(C(F)(F)F)cc4)CC3)CC2)cc1` [Example 270] the figure was less than 1 µM. As to `O=C(CCCN1CCN(c2ccc(C(F)(F)F)cc2)CC1)N1CCC(Nc2ccc(Cl)c(Cl)c2)CC1` [Example 272], under setting [3], the minimal effective concentration was less than 1 µM. In the case of `O=C(CCCN1CCN(c2ccc(C(F)(F)F)cc2)CC1)N1CCC(Nc2ccc(Cl)cc2)CC1` [Example 273], under setting [3], the minimal effective concentration was less than 1 µM. As to `O=C(CCN1CCN(c2ccc(C(F)(F)F)cc2)CC1)N1CCC(Nc2cccc(C(F)(F)F)c2)CC1` [Example 276], the minimal effective concentration under setting [1] was less than 1 µM. As to `O=C(CCN1CCN(c2ccc(C(F)(F)F)cc2)CC1)N1CCC(Nc2ccc(Cl)cc2)CC1` [Example 282], under setting [3], the minimal effective concentration is less than 1 µM.

Take `N#Cc1ccc(NC2CCN(C(=O)CCN3CCN(c4ccc(C(F)(F)F)cc4)CC3)CC2)cc1` [Example 283]: the minimal effective concentration under setting [1] was less than 1 µM. As for `O=C(CCN1CCN(c2ccc(C(F)(F)F)cc2)CC1)N1CC[C@H](Nc2ccc([N+](=O)[O-])c(C(F)(F)F)c2)C1` [Example 285], under setting [2], the minimal effective concentration is less than 1 µM. As to `COc1ccc(N2CCN(CCC(=O)N3CC[C@H](Nc4ccc([N+](=O)[O-])c(C(F)(F)F)c4)C3)CC2)cc1` [Example 289], the minimal effective concentration reads like this: under setting [2], less than 1 µM; under setting [1], less than 1 µM. Take `CCCCC(=O)N1CCC(OCC(=O)N2CCC(Nc3ccc([N+](=O)[O-])c(C(F)(F)F)c3)CC2)CC1` [Example 291]: the minimal effective concentration under setting [2] is less than 1 µM. On to `CC(C)(C)c1ccc(N2CCN(CCC(=O)N3CCC(Nc4ccc(S(=O)(=O)c5ccc(F)cc5)cc4)CC3)CC2)cc1` [Example 294], for which the minimal effective concentration under setting [1] is less than 1 µM. For `C[S+]([O-])c1ccc(NC2CCN(C(=O)CCN3CCN(c4ccc(C(C)(C)C)cc4)CC3)CC2)cc1C(F)(F)F` (centres unmarked) [Example 299], the minimal effective concentration under setting [1] is less than 1 µM. As for `CSc1ccc(NC2CCN(C(=O)CCCN3CCN(c4ccc(C(C)(C)C)cc4)CC3)CC2)cc1C(F)(F)F` [Example 317], the minimal effective concentration under setting [3] is less than 1 µM. Take `CC(C)(C)c1ccc(N2CCN(CCC(=O)N3CCC(Nc4ccc(C(F)(F)F)cn4)CC3)CC2)cc1` [Example 329]: under setting [2], the minimal effective concentration is less than 1 µM. As for `CCOC(=O)c1ccc(NC2CCN(C(=O)CCCN3CCN(c4ccc(Cl)cc4)CC3)CC2)cc1` [Example 338], the minimal effective concentration under setting [2] is less than 1 µM. In the case of `CC(C)(C)c1ccc(N2CCN(CCC(=O)N3CCC(Nc4ccc(S(C)(=O)=O)c(C(F)(F)F)c4)CC3)CC2)cc1` [Example 340], the minimal effective concentration under setting [2] was less than 1 µM. `CS(=O)(=O)c1ccc(NC2CCN(C(=O)CCN3CCN(c4ccc(Cl)cc4)CC3)CC2)cc1C(F)(F)F` [Example 341]: the minimal effective concentration reads like this: under setting [2], less than 1 µM; under setting [1], less than 1 µM.

`CS(=O)(=O)c1ccc(NC2CCN(C(=O)CCCN3CCN(c4ccc(Cl)cc4)CC3)CC2)cc1C(F)(F)F` [Example 343]: under setting [2], the minimal effective concentration was less than 1 µM. For the molecule `CN(C)S(=O)(=O)c1ccc(NC2CCN(C(=O)CCN3CCN(c4ccc(Cl)cc4)CC3)CC2)cc1C(F)(F)F` [Example 346], the minimal effective concentration under setting [1] was less than 1 µM.

For `CN(C)S(=O)(=O)c1ccc(NC2CCN(C(=O)CCCN3CCN(c4ccc(Cl)cc4)CC3)CC2)cc1C(F)(F)F` [Example 349], the minimal effective concentration under setting [4] is less than 7 µM. Consider `CC(C)(C)c1ccc(N2CCN(CCC(=O)N3CCC(Nc4cccc(C#N)c4)CC3)CC2)cc1` [Example 351], for which, under setting [2], the minimal effective concentration is less than 1 µM. For the molecule `O=C(CCCN1CCN(c2ccc(Cl)cc2)CC1)N1CCC(Nc2ccc(Cl)c(SC(F)(F)F)c2)CC1` [Example 359], the minimal effective concentration under setting [2] is less than 1 µM.

Consider `COc1ccc(N2CCN(CCC(=O)N3CCC(Nc4ccc([N+](=O)[O-])c(C(F)(F)F)c4)CC3)CC2)cc1OC` [Example 368], for which the minimal effective concentration under setting [1] was less than 1 µM. As to `O=C(CCN1CCN(c2ccc(F)cc2F)CC1)N1CCC(Nc2ccc([N+](=O)[O-])c(C(F)(F)F)c2)CC1` [Example 370], under setting [4], the minimal effective concentration was less than 7 µM. For the molecule `COc1cc(NC2CCN(C(=O)CCN3CCC(c4ccc(Oc5ccccc5)cc4)CC3)CC2)ccc1[N+](=O)[O-]` [Example 376], under setting [2], the minimal effective concentration was less than 1 µM.

For the molecule `CCCc1ccc(C2CCN(CCC(=O)N3CCC(Nc4ccc([N+](=O)[O-])c(OC)c4)CC3)CC2)cc1` [Example 379], under setting [4], the minimal effective concentration is less than 7 µM. On to `COc1cc(NC2CCN(C(=O)CCN3CCC(c4ccc(C(C)(C)C)cc4)CC3)CC2)ccc1[N+](=O)[O-]` [Example 380], for which the minimal effective concentration was less than 1 µM under setting [2] and less than 7 µM under setting [4]. On to `COc1cc(NC2CCN(C(=O)CCN3CCN(c4ccc(C(F)(F)F)cc4)CC3)CC2)ccc1[N+](=O)[O-]` [Example 382], for which the minimal effective concentration reads like this: under setting [4], less than 7 µM; under setting [1], less than 1 µM. As for `COc1cc(NC2CCN(C(=O)CCN3CCN(c4ccc(Cl)c(C(F)(F)F)c4)CC3)CC2)ccc1[N+](=O)[O-]` [Example 384], under setting [4], the minimal effective concentration is less than 7 µM.

Source of the values: US9096524B2, “Anthelmintic agents and their use” (Intervet International B.V., priority 2009, dated 2015).
